In patent publication US12577247B2 (BUGWORKS RESEARCH, INC., priority 2021, dated 2026):

Key:
A2A receptor = biological target: T1, A2A receptor (Homo sapiens, UniProt P29274); test: A2aR antagonism IC50, cAMP TR-FRET in HEK-293 cells, high concentration of adenosine (30 μM); format: cell-based; settings: HEK-293 cells expressing A2A receptor; agonist adenosine 30 μM; 2% HSA; inhibition of cAMP; read-out: A2AR IC50 (nM) (@30 μM Adenosine);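 also: compounds added 10 min before adenosine, then 30 min stimulation at room temperature in buffer with 100 µM rolipram and 30 µM EHNA, signal read 1 h after detection reagents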
T1 construct: host or cells: HEK-293
T1 sequence (P29274 whole entry): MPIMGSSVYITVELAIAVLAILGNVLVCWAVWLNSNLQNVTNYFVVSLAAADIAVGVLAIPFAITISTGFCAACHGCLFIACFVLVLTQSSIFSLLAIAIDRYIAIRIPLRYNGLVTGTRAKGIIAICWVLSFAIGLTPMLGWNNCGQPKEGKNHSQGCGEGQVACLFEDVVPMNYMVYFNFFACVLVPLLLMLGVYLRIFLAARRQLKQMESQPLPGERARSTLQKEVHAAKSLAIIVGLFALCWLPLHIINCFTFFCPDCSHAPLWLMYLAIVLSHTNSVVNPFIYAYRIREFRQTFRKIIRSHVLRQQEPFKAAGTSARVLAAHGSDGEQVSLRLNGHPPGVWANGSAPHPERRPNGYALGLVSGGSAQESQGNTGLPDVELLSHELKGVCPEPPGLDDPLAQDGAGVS
Procedure: A Time-Resolved Fluorescence Energy Transfer (TR-FRET) assay was used to show the inhibition of this cAMP production in HEK cells upon treatment with compounds of the Formula I of the present disclosure.
HEK-293 cells expressing A2A receptor (#ES-011-C) or A2B receptor (#ES 013-C) were obtained from PerkinElmer. Cells were maintained in DMEM medium supplemented with 10% FBS and 200 μg/mL of G418 at 37° C. and 5% CO2. The cells were cultured in antibiotic free medium for a period of 16-20 hours prior to the assay. All subsequent steps of the assay are performed at room temperature (22-24° C.). […] About 1500 cells per well were pre-incubated for 10 minutes with the compounds of the present invention before adding the agonist Adenosine at a high concentration (30 μM) for a total stimulation time of 30 minutes. […] The assays were conducted in a stimulation buffer containing 1×DMEM, 5 mM HEPES, 2% Human serum albumin (HSA), 100 μM Rolipram and 30 μM erythro-9-(2-hydroxy-3-nonyl) adenine (EHNA). Serial dilutions of compounds were made in stimulation buffer to achieve a final concentration of high micromolar in a reaction volume of 10 μL. The total reaction volume was 10 μL (5 μL of cells, 2.5 μL of antagonist and 2.5 μL of agonist). […] The stimulation was ended, and the reaction completed by adding 5 μL of 4× Eu-cAMP tracer working solution and 5 μL of 4× ULight-anti-cAMP working solution. The TR FRET signal was measured after 1-hour incubation using a Tecan M1000 or a PerkinElmer Victor Nivo plate reader.

A2B receptor = biological target: T2, A2B receptor (Homo sapiens, UniProt P29275); test: A2bR antagonism IC50, cAMP TR-FRET in HEK-293 cells, high concentration of adenosine (30 μM); settings: A2BR IC50 (nM) (@30 μM Adenosine), HEK-293 cells expressing A2B receptor; agonist adenosine 30 μM; 2% HSA; inhibition of cAMP;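 also: compounds preincubated 10 min with cells, then adenosine stimulation 30 min at room temperature in buffer with Rolipram 100 µM and EHNA 30 µM, TR-FRET read after 1 h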
T2 sequence (P29275 1-332): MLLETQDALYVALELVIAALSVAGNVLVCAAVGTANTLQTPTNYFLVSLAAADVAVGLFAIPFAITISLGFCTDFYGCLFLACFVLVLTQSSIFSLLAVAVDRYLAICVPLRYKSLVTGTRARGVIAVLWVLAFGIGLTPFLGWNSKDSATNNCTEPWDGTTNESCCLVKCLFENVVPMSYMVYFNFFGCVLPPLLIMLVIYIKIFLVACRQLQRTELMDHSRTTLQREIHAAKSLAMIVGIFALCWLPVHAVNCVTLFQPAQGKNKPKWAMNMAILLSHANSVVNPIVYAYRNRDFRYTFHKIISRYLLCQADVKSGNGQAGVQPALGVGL

| SMILES | IC50 (A2A receptor) [nM] | IC50 (A2B receptor) [nM] |
| --- | --- | --- |
| CCc1c(C)nn2c(N)c(C#N)c(NCCc3cccc(C(C)O)n3)nc12 (racemic) [Example 100, 7-amino-3-ethyl-5-((2-(6-(1-hydroxyethyl)pyridin-2-yl)ethyl)amino)-2-methylpyrazolo[1,5-a] pyrimidine-6-carbonitrile] | 139 | 1010 |
| Cc1nn2c(N)c(C#N)c(NCCc3ccn(C4CCC4CO)n3)nc2c1C (racemic) [Example 103, (+−)-7-amino-5-((2-(1-(2-(hydroxymethyl)cyclobutyl)-1H-pyrazol-3-yl)ethyl)amino)-2,3-dimethylpyrazolo[1,5-a] pyrimidine-6-carbonitrile] | 100 | 2590 |
| CCc1c(C)nn2c(N)c(C#N)c(NCCc3ccn(C4COCC4CO)n3)nc12 (racemic) [Example 121, (+−)-7-amino-3-ethyl-5-((2-(1-(4-(hydroxymethyl)tetrahydrofuran-3-yl)-1H-pyrazol-3-yl)ethyl)amino)-2-methyl pyrazolo[1,5-a]pyrimidine-6-carbonitrile] | 245 | 895 |
| Cc1nn2c(N)c(C#N)c(NCCc3ccn(C4COCC4CO)n3)nc2c1C (racemic) [Example 132, (+−)-7-amino-5-((2-(1-(4-(hydroxymethyl)tetrahydrofuran-3-yl)-1H-pyrazol-3-yl)ethyl)amino)-2,3-dimethylpyrazolo[1,5-a]pyrimidine-6-carbonitrile] | 248 |  |
| CCc1c(C)nn2c(N)c(C#N)c(NCCc3cccn(CC[S+](C)[O-])c3=O)nc12 (racemic) [Example 143, Racemic (+−)7-amino-3-ethyl-2-methyl-5-((2-(1-(2-(methylsulfinyl)ethyl)-2-oxo-1,2-dihydropyridin-3-yl)ethyl)amino) pyrazolo[1,5-a]pyrimidine-6-carbonitrile] | 667 | 1340 |
| CCc1c(C)nn2c(N)c(C#N)c(NCCc3cc(C)n(C4COCC4CO)n3)nc12 (single isomer, unassigned) [Example 167] | 100 | 700 |
| CCc1c(C)nn2c(N)c(C#N)c(NCCc3ccn(C4CCC4CO)n3)nc12 (single isomer, unassigned; (+)) [Example 78, (+)-7-amino-3-ethyl-5-((2-(1-(2-(hydroxymethyl)cyclobutyl)-1H-pyrazol-3-yl)ethyl)amino)-2-methylpyrazolo[1,5-a]pyrimidine-6-carbonitrile] | 200 | 798 |
| Cc1nn2c(N)c(C#N)c(NCCc3ccn(CC4CC(O)C4)n3)nc2c1Cl (single isomer, unassigned; (+)) [Example 83, (+)-7-amino-3-chloro-5-((2-(1-((3-hydroxycyclobutyl)methyl)-1H-pyrazol-3-yl)ethyl)amino)-2-methylpyrazolo[1,5-a]pyrimidine-6-carbonitrile] | 109 | 2650 |
| Cc1nn2c(N)c(C#N)c(NCCc3ccn(C4CCC4CO)n3)nc2c1C (single isomer, unassigned; (+)) [Example 104a, (+)-7-amino-5-((2-(1-(2-(hydroxymethyl)cyclobutyl)-1H-pyrazol-3-yl)ethyl)amino)-2,3-dimethylpyrazolo[1,5-a]pyrimidine-6-carbonitrile] | 88 | 2260 |
| CCc1c(C)nn2c(N)c(C#N)c(NCCc3ccn(C4COCC4CO)n3)nc12 (single isomer, unassigned; (+)) [Example 122a, (+)-7-amino-3-ethyl-5-((2-(1-(4-(hydroxymethyl)tetrahydrofuran-3-yl)-1H-pyrazol-3-yl)ethyl)amino)-2-methyl pyrazolo[1,5-a]pyrimidine-6-carbonitrile] | 289 | 707 |
| Cc1nn2c(N)c(C#N)c(NCCc3ccn(C4COCC4CO)n3)nc2c1C (single isomer, unassigned; (+)) [Example 133a, (+)-7-amino-5-((2-(1-(4-(hydroxymethyl)tetrahydrofuran-3-yl)-1H-pyrazol-3-yl)ethyl)amino)-2,3-dimethylpyrazolo[1,5-a]pyrimidine-6-carbonitrile] | 554 | 6690 |
| CCc1c(C)nn2c(N)c(C#N)c(NCCc3cccn(CC[S+](C)[O-])c3=O)nc12 (single isomer, unassigned; (+)) [Example 144a, (+)7-amino-3-ethyl-2-methyl-5-((2-(1-(2-(methylsulfinyl)ethyl)-2-oxo-1,2-dihydropyridin-3-yl)ethyl)amino) pyrazolo[1,5-a]pyrimidine-6-carbonitrile] | 327 | 821 |
| CCc1c(C)nn2c(N)c(C#N)c(NCCc3cccn(CCC[S+](C)[O-])c3=O)nc12 (single isomer, unassigned; (+)) [Example 154b, (+)-7-amino-3-ethyl-2-methyl-5-((2-(1-(3-(methylsulfinyl)propyl)-2-oxo-1,2-dihydropyridin-3-yl)ethyl)amino) pyrazolo[1,5-a]pyrimidine-6-carbonitrile] | 1010 | 1410 |
| CCc1c(C)nn2c(N)c(C#N)c(NCCc3cccc(C(C)O)n3)nc12 (single isomer, unassigned; (+)) [Example 159a, (+)-7-amino-3-ethyl-5-((2-(6-(1-hydroxyethyl)pyridin-2-yl)ethyl)amino)-2-methylpyrazolo[1,5-a]pyrimidine-6-carbonitrile] | 139 | 911 |
| CCCc1c(C)nn2c(N)c(C#N)c(NCCc3ccn(C4COCC4CO)n3)nc12 (single isomer, unassigned; (+)) [Example 160a, (+) 7-amino-5-((2-(1-(4-(hydroxymethyl)tetrahydrofuran-3-yl)-1H-pyrazol-3-yl)ethyl)amino)-2-methyl-3-propylpyrazolo[1,5-a]pyrimidine-6-carbonitrile] | 579 | 1930 |
| CCc1c(C)nn2c(N)c(C#N)c(NCCc3ccn(CCC[S+](C)[O-])n3)nc12 (single isomer, unassigned; (+)) [Example 162b, (+)-7-amino-3-ethyl-2-methyl-5-((2-(1-(3-(methylsulfinyl)propyl)-1H-pyrazol-3-yl)ethyl)amino)pyrazolo[1,5-a]pyrimidine-6-carbonitrile] | 1230 | 2730 |
| CCc1c(C)nn2c(N)c(C#N)c(NCCc3ccn(C4(CNCC[S+](C)[O-])CC4)n3)nc12 (single isomer, unassigned; (+)) [Example 163b, (+)-7-amino-3-ethyl-2-methyl-5-((2-(1-(1-(((2-(methylsulfinyl)ethyl)amino)methyl)cyclopropyl)-1H-pyrazol-3-yl)ethyl)amino) pyrazolo[1,5-a]pyrimidine-6-carbonitrile] | 82 | 12200 |
| CCc1c(C)nn2c(N)c(C#N)c(NCCc3cccc(CNCCOC)n3)nc12 [Example 96, 7-amino-3-ethyl-5-((2-(6-(((2-methoxyethyl)amino)methyl)321yridine-2-yl)ethyl)amino)-2-methylpyrazolo[1,5-a]pyrimidine-6-carbonitrile] | 456 |  |
| Cc1nn2c(N)c(C#N)c(NCCc3cccc(CNCCO)n3)nc2c1C [Example 105, 7-amino-5-((2-(6-(((2-hydroxyethyl)amino)methyl)pyridin-2-yl)ethyl)amino)-2,3-dimethylpyrazolo[1,5-a]pyrimidine-6-carbonitrile] |  | 3870 |
